From article PMC4457528, “Identification of Novel Small Molecule Inhibitors of Oncogenic RET Kinase” (PLoS ONE, 2015)
Where two headings read alike, the source gives them in different places.

Assays:
Assay in all cases: KinomeScan kinase panel, single concentration 10 µM
Format in all cases: binding
[1] = target: T1, KinomeScan kinase panel (Homo sapiens, UniProt P16234); details: PDGFRA, 10 µM; read-out: score (%)
T1 construct: purchased DiscoveRx (KinomeScan)

[2] = target: T2, KinomeScan kinase panel (Homo sapiens, UniProt P09619); details: PDGFRB, 10 µM; read-out: score (%)
T2 construct: purchased DiscoveRx (KinomeScan)
T2 sequence (P09619 33-1106): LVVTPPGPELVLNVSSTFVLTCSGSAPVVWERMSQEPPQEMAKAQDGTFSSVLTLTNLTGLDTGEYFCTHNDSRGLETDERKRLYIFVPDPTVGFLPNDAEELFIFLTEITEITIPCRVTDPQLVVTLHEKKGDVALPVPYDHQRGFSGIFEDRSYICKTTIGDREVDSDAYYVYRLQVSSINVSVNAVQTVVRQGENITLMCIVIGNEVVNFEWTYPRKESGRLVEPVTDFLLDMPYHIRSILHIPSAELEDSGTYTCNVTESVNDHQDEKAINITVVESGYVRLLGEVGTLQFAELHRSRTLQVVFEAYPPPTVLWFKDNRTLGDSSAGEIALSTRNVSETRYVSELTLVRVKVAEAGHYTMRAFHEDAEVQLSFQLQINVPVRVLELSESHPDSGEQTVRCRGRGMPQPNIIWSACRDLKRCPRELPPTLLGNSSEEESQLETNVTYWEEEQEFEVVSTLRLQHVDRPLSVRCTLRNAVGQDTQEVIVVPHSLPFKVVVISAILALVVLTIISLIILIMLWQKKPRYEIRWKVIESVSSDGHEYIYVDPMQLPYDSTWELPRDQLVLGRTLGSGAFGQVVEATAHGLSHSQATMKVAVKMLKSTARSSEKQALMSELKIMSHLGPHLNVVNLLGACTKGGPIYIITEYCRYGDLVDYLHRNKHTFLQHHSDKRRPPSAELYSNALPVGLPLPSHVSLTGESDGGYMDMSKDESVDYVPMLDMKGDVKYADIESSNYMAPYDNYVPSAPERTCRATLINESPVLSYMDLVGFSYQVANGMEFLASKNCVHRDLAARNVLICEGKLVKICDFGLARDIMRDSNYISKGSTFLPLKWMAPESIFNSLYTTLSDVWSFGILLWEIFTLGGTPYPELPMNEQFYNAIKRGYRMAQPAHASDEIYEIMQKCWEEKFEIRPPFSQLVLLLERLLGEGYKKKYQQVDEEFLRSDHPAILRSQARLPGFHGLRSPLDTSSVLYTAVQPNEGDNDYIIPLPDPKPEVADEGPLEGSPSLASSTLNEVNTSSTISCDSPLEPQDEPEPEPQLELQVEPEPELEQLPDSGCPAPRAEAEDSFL

[3] = target: T3, KinomeScan kinase panel (Homo sapiens, UniProt Q14680); details: MELK, 10 µM; read-out: score (%)
T3 construct: purchased DiscoveRx (KinomeScan)

[4] = target: T4, KinomeScan kinase panel (Homo sapiens, UniProt Q15375); details: EPHA7, 10 µM; read-out: score (%)
T4 construct: purchased DiscoveRx (KinomeScan)

[5] = target: T5, KinomeScan kinase panel (Homo sapiens, UniProt Q86V86); details: PIM3, 10 µM; read-out: score (%)
T5 construct: purchased DiscoveRx (KinomeScan)

[6] = target: T6, KinomeScan kinase panel (Homo sapiens, UniProt P53355); details: DAPK1, 10 µM; read-out: score (%)
T6 construct: purchased DiscoveRx (KinomeScan)
T6 sequence (P53355 whole entry): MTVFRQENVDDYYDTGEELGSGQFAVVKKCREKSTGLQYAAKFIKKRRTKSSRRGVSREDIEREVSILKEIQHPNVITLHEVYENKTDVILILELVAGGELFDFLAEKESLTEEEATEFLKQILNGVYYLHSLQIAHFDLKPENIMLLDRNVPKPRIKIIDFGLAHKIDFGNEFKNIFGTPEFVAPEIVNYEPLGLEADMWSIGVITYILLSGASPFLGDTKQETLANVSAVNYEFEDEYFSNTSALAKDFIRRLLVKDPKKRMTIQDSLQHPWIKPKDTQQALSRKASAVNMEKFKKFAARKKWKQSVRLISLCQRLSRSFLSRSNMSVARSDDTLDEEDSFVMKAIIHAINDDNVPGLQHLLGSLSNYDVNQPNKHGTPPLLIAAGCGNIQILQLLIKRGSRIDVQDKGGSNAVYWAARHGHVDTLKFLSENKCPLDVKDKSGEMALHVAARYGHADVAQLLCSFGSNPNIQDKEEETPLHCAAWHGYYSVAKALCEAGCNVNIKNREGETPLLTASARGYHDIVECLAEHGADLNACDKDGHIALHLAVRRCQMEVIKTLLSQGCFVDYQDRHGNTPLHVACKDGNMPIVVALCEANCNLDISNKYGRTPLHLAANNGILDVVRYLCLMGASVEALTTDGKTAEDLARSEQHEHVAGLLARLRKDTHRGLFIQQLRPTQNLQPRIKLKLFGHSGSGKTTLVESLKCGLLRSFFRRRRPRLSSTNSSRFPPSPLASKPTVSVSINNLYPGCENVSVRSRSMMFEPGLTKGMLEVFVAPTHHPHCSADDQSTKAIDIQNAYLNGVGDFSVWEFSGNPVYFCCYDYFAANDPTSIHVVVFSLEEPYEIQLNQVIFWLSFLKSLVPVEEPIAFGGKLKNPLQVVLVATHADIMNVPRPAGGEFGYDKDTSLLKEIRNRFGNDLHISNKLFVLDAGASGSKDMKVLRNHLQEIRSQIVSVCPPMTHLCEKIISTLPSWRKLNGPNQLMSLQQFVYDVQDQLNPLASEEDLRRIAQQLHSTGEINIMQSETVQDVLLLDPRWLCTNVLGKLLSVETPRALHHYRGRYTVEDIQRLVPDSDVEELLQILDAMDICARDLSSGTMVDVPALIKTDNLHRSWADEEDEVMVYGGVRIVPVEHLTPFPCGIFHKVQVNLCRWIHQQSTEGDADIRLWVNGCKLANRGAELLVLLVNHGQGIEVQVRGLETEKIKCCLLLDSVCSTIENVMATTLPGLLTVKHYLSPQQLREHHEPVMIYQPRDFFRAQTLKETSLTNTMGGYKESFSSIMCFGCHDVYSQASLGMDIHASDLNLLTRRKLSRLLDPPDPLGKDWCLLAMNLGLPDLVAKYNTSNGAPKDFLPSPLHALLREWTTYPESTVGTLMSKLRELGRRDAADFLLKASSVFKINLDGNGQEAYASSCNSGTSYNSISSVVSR

[7] = target: T7, KinomeScan kinase panel (Homo sapiens, UniProt P30291); details: kinase WEE1; 10 µM; read-out: score (%)
T7 construct: purchased DiscoveRx (KinomeScan)
T7 sequence (P30291 whole entry): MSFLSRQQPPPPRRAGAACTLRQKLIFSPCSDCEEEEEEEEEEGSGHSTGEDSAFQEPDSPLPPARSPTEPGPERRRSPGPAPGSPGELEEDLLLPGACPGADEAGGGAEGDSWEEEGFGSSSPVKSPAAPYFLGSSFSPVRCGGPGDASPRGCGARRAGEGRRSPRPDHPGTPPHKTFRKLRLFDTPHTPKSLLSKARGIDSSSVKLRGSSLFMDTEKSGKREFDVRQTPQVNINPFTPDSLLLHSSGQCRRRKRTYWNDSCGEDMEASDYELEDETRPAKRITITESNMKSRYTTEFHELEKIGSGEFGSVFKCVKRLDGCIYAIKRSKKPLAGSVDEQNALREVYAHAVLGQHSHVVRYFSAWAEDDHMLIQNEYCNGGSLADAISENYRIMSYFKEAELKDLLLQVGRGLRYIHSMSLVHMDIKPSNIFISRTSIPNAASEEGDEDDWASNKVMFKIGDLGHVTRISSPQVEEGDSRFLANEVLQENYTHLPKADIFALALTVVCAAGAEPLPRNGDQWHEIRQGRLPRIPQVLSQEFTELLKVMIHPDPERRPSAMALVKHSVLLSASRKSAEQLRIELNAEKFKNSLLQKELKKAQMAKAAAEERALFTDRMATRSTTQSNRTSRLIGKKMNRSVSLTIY

[8] = target: T8, KinomeScan kinase panel (Homo sapiens, UniProt Q13546); details: read-out: score (%)
T8 construct: purchased DiscoveRx (KinomeScan)
T8 sequence (Q13546 1-671): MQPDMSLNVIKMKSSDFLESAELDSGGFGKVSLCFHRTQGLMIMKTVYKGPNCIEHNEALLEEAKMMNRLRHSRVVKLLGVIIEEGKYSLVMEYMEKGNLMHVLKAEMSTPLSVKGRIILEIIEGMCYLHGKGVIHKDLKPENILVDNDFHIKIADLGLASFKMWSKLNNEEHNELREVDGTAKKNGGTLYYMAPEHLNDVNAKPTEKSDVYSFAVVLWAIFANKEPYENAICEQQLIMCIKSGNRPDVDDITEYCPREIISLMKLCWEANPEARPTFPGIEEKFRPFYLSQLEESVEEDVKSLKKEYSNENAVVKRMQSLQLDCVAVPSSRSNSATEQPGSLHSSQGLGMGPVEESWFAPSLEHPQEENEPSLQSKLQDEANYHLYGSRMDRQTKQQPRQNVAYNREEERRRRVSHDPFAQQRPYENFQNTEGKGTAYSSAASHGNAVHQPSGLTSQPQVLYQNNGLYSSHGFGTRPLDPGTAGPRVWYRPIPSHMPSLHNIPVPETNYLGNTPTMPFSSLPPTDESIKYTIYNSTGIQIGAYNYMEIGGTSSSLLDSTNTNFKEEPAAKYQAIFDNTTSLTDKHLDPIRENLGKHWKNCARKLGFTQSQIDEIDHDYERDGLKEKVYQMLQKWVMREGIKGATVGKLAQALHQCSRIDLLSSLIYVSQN

[9] = target: T9, KinomeScan kinase panel (Homo sapiens, UniProt Q9NSY1); details: BIKE, 10 µM; read-out: score (%)
T9 construct: purchased DiscoveRx (KinomeScan)

[10] = target: T10, KinomeScan kinase panel (Homo sapiens, UniProt Q9H3Y6); details: 10 µM, read-out: score (%)
T10 construct: purchased DiscoveRx (KinomeScan)

[11] = target: T11, KinomeScan kinase panel (Homo sapiens, UniProt P29322); details: EPHA8, 10 µM; read-out: score (%)
T11 construct: purchased DiscoveRx (KinomeScan)
T11 sequence (P29322 28-1005): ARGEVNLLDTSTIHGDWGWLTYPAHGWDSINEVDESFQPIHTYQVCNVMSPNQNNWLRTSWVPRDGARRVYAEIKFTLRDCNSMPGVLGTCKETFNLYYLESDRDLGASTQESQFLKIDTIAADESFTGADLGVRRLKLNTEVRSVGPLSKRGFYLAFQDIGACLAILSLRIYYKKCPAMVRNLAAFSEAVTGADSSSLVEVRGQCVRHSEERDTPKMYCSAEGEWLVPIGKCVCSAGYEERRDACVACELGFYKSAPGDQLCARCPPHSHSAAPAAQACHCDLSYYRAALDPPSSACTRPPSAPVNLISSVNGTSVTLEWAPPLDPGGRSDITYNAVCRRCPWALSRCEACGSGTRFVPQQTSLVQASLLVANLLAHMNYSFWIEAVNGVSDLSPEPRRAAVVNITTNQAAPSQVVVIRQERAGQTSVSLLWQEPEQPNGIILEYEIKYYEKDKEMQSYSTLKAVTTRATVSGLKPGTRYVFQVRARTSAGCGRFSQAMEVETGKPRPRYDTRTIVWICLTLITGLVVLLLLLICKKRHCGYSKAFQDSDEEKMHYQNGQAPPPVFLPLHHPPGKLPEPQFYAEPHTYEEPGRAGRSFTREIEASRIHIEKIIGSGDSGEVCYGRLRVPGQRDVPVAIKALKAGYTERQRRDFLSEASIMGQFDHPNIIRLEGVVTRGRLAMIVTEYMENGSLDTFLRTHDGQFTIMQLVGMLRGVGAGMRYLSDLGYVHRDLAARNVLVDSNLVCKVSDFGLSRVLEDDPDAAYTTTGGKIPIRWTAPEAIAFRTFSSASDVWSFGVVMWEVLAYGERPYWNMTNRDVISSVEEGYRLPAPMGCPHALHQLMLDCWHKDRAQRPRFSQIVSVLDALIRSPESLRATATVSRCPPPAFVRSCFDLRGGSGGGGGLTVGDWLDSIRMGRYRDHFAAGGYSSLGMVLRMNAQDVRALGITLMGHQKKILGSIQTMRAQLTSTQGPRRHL

[12] = target: T12, KinomeScan kinase panel (Homo sapiens, UniProt P0C264); details: read-out: score (%)
T12 construct: purchased DiscoveRx (KinomeScan)
T12 sequence (P0C264 1-359): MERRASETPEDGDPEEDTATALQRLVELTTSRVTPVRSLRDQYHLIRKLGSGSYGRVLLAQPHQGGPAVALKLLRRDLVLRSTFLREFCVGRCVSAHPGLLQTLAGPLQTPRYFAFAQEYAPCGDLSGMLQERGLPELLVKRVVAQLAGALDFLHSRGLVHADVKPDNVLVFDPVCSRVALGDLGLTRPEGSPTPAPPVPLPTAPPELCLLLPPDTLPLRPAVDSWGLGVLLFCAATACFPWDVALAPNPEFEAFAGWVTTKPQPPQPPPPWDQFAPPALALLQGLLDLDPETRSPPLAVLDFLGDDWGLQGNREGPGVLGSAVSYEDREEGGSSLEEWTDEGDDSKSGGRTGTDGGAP

[13] = target: T13, KinomeScan kinase panel (Homo sapiens, UniProt Q9Y243); details: AKT3, 10 µM; read-out: score (%)
T13 construct: purchased DiscoveRx (KinomeScan)
T13 sequence (Q9Y243 whole entry): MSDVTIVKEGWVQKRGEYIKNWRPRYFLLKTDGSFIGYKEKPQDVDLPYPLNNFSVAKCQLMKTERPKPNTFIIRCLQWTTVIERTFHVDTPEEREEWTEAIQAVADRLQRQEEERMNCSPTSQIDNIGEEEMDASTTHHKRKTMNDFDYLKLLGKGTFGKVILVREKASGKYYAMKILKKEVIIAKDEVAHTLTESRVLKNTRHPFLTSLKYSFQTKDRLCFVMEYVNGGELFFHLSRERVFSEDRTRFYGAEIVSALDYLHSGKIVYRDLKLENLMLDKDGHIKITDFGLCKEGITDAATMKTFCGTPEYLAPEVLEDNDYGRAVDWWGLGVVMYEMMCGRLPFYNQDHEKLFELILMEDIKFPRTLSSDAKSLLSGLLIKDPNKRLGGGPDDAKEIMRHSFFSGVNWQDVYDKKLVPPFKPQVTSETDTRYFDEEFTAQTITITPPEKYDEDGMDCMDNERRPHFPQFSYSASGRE

T1 sequence (P16234 24-1089): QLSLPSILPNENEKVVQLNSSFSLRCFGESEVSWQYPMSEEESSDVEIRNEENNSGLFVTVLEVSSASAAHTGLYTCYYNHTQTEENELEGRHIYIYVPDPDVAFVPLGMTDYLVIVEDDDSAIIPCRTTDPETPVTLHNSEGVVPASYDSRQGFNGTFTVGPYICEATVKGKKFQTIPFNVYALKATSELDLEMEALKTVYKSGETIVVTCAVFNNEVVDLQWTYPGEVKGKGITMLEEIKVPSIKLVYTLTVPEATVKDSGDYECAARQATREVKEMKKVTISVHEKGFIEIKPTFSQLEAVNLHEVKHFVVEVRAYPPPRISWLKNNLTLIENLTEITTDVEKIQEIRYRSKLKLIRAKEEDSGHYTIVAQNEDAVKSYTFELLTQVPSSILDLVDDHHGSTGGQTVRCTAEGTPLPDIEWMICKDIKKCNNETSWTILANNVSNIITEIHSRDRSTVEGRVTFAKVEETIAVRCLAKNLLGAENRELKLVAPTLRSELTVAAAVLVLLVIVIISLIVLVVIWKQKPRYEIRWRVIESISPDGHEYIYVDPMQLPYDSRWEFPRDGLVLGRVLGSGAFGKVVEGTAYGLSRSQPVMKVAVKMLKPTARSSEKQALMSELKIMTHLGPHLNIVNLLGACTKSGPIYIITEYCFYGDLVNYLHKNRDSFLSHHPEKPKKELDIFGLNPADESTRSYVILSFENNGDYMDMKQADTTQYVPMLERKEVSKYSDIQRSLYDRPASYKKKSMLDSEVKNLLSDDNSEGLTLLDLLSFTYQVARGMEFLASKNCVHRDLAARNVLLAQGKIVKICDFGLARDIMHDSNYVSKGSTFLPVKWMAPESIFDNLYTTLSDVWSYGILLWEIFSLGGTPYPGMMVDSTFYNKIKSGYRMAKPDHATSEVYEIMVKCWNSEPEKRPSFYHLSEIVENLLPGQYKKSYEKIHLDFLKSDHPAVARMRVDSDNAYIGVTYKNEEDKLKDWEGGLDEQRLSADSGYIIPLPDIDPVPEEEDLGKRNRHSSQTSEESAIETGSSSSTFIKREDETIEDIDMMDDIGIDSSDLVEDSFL

With CCN1CCN(Cc2ccc(NC(=O)c3ccc(C)c(NC(=O)c4cncc(-c5cccs5)c4)c3)cc2C(F)(F)F)CC1 [ALW-II-41-27] the remaining binding at 10 µM [1] was 0%, the remaining binding at 10 µM [2] was 0% and the remaining binding at 10 µM [3] was > 30%. For the same molecule, the remaining binding at 10 µM [4] was > 30%, the remaining binding at 10 µM [5] was > 30% and the remaining binding at 10 µM [6] was > 30%. For the same molecule, the remaining binding at 10 µM [7] was > 30%, the remaining binding at 10 µM ([8]; RIPK1, 10 µM) was 0.45% and the remaining binding at 10 µM [9] was > 30%. The remaining binding at 10 µM ([10]; kinase SRMS) was 2.8%, the remaining binding at 10 µM [11] was 0.1% and the remaining binding at 10 µM ([12]; kinase SgK110, 10 µM) was > 30%. The remaining binding at 10 µM [13] was 20%.

For CCN1CCN(Cc2ccc(NC(=O)c3ccc(C)c(/C=C/c4cnc5[nH]ccc5c4Cl)c3)cc2C(F)(F)F)CC1 [HG-6-63-01, (E)-3-(2-(4-chloro-1H-pyrrolo[2,3-b]pyridin-5-yl)vinyl)-N-(4-((4-ethylpiperazin-1-yl)methyl)-3-(trifluoromethyl)phenyl)-4-methylbenzamide], the remaining binding at 10 µM [1] was 0%, the remaining binding at 10 µM [2] was 0% and the remaining binding at 10 µM [3] was 22%. The remaining binding at 10 µM [4] was > 30%, the remaining binding at 10 µM [5] was > 30% and the remaining binding at 10 µM [6] was > 30%. The remaining binding at 10 µM [7] was > 30%, the remaining binding at 10 µM ([8]; RIPK1, 10 µM) was 0.05% and the remaining binding at 10 µM [9] was 1.2%. It also gave a remaining binding at 10 µM ([10]; SRMS) of 23%, a remaining binding at 10 µM [11] of 0.1% and a remaining binding at 10 µM ([12]; SgK110, 10 µM) of 29%. The remaining binding at 10 µM [13] was > 30%.

For CCN1CCN(Cc2ccc(NC(=O)c3ccc(C)c(C#Cc4cccnc4)c3)cc2C(F)(F)F)CC1 [XMD15-44], the remaining binding at 10 µM [1] was 0%, the remaining binding at 10 µM [2] was 0% and the remaining binding at 10 µM [3] was 8.1%. For the same molecule, the remaining binding at 10 µM [4] was 0.55%, the remaining binding at 10 µM [5] was 100% and the remaining binding at 10 µM [6] was > 30%. For the same molecule, the remaining binding at 10 µM [7] was 100%, the remaining binding at 10 µM ([8]; kinase RIPK1, 10 µM) was 0.05% and the remaining binding at 10 µM [9] was > 30%. For the same molecule, the remaining binding at 10 µM ([10]; kinase SRMS) was 0%, the remaining binding at 10 µM [11] was 0% and the remaining binding at 10 µM ([12]; kinase SgK110, 10 µM) was 100%. The remaining binding at 10 µM [13] was > 30%.
